Laboratory results from patent publication US10092551B2, “Spiro-thiazolones” (Hoffmann-La Roche Inc., priority 2014, dated 2018).

These molecules were tested against human V1a receptor (Homo sapiens (Human), UniProt P37288) (assay: human V1a receptor binding studies (3H-Vasopressin, SPA beads)). Conditions: membranes of HEK293 cells transiently transfected with human V1a receptor, Ki by Cheng-Prussoff.
human V1a receptor, sequence (P37288 whole entry): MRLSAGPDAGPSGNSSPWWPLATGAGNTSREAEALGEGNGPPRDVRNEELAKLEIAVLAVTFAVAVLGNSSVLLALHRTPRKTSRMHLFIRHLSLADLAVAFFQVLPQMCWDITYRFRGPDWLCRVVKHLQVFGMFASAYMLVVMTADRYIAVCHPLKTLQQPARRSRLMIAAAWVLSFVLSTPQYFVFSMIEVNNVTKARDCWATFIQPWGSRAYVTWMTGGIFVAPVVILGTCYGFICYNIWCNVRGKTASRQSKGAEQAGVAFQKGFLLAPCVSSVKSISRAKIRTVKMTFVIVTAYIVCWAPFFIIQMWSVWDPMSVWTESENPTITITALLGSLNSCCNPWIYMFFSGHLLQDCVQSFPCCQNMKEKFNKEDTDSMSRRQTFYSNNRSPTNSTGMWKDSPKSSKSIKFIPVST
Protocol: The human V1a receptor was cloned by RT-PCR from total human liver RNA. The coding sequence was subcloned in an expression vector after sequencing to confirm the identity of the amplified sequence. […] Cell membranes were prepared from HEK293 cells transiently transfected with the expression vector and grown in 20 liter fermenters with the following protocol.
50 g of cells are re-suspended in 30 ml freshly prepared ice cold Lysis buffer (50 mM HEPES, 1 mM EDTA, 10 mM MgCl2 adjusted to pH=7.4+complete cocktail of protease inhibitor (Roche Diagnostics)). Homogenized with Polytron for 1 min and sonicated on ice for 2×2 minutes at 80% intensity (Vibracell sonicator). The preparation is centrifuged 20 min at 500 g at 4° C., the pellet is discarded and the supernatant centrifuged 1 hour at 43,000 g at 4° C. (19,000 rpm). The pellet is re-suspended in 12.5 ml Lysis buffer+12.5 ml Sucrose 20% and homogenized using a Polytron for 1-2 min. The protein concentration is determined by the Bradford method and aliquots are stored at −80° C. until use. For binding studies 60 mg Yttrium silicate SPA beads (Amersham) are mixed with an aliquot of membrane in binding buffer (50 mM Tris, 120 mM NaCl, 5 mM KCl, 2 mM CaCl2, 10 mM MgCl2) for 15 minutes with mixing. 50 μl of bead/membrane mixture is then added to each well of a 96 well plate, followed by 50 μl of 4 nM 3H-Vasopressin (American Radiolabeled Chemicals). For total binding measurement 100 μl of binding buffer are added to the respective wells, for non-specific binding 100 μl of 8.4 mM cold vasopressin and for compound testing 100 μl of a serial dilution of each compound in 2% DMSO. The plate is incubated 1 h at room temperature, centrifuged 1 min at 1000 g and counted on a Packard Top-Count. Non-specific binding counts are subtracted from each well and data is normalized to the maximum specific binding set at 100%. To calculate an IC 50 the curve is fitted using a non-linear regression model (XLfit) and the Ki is calculated using the Cheng-Prussoff equation.
For O=C1N=C(N2CCC3(CC2)OCc2ccccc23)S/C1=C(\c1ccc(Cl)cc1)C1CC1 [Example 22, (5E/Z)-5-[(4-chlorophenyl)(cyclopropyl)methylidene]-2-(1′H,3H-spiro[2-benzofuran-1,4′-piperidin]-1′-yl)-1,3-thiazol-4(5H)-one], the “pKi hV1a” value was 7.8. For CC/C(=C1\SC(N2CCC3(CC2)OCc2ccccc23)=NC1=O)c1ccc(Cl)nc1 [Example 134, (5E)-5-[1-(6-chloropyridin-3-yl)propylidene]-2-(1′H,3H-spiro[2-benzofuran-1,4′-piperidin]-1′-yl)-1,3-thiazol-4(5H)-one], the “pKi hV1a” value was 8.0. O=C1N=C(N2CCC3(CC2)OCc2ccccc23)S/C1=C\c1ccc(Cl)cc1 [Example 8, (5Z)-5-(4-chlorobenzylidene)-2-(1′H,3H-spiro[2-benzofuran-1,4′-piperidin]-1′-yl)-1,3-thiazol-4(5H)-one] was tested, and the “pKi hV1a” value was 7.8. With C/C(=C1/SC(N2CCC3(CC2)OCc2ccccc23)=NC1=O)c1ccnc(C)c1 [Example 77, (5E/Z)-5-[1-(2-methylpyridin-4-yl)ethylidene]-2-(1′H,3H-spiro[2-benzofuran-1,4′-piperidin]-1′-yl)-1,3-thiazol-4(5H)-one] the “pKi hV1a” value was 7.6. CC(C)/C(=C1\SC(N2CCC3(CC2)OCc2ccccc23)=NC1=O)c1ccc(Cl)nc1 [Example 132, (5E)-5-[1-(6-chloropyridin-3-yl)-2-methylpropylidene]-2-(1′H,3H-spiro[2-benzofuran-1,4′-piperidin]-1′-yl)-1,3-thiazol-4(5H)-one] was tested, and the “pKi hV1a” value was 7.8. C/C(CF)=C1/SC(N2CCC3(CC2)OCc2ccccc23)=NC1=O [Example 51, (5E/Z)-5-(1-fluoropropan-2-ylidene)-2-(1′H,3H-spiro[2-benzofuran-1,4′-piperidin]-1′-yl)-1,3-thiazol-4(5H)-one] was tested, and the “pKi hV1a” value was 7.9. For CC(C)CC(CC(C)C)=C1SC(N2CCC3(CC2)OCc2ccccc23)=NC1=O [Example 116, 5-(2,6-dimethylheptan-4-ylidene)-2-(1′H,3H-spiro[2-benzofuran-1,4′-piperidin]-1′-yl)-1,3-thiazol-4(5H)-one], the “pKi hV1a” value was 8.3. In the case of C/C(=C1/SC(N2CCC3(CC2)OCc2ccccc23)=NC1=O)c1ccccc1F [Example 57, (5Z)-5-[1-(2-fluorophenyl)ethylidene]-2-(1′H,3H-spiro[2-benzofuran-1,4′-piperidin]-1′-yl)-1,3-thiazol-4(5H)-one], the “pKi hV1a” value is reported as 9.0. In the case of O=C1N=C(N2CCC3(CC2)OCc2ccccc23)SC1=C(CF)CF [Example 69, 5-(1,3-difluoropropan-2-ylidene)-2-(1′H,3H-spiro[2-benzofuran-1,4′-piperidin]-1′-yl)-1,3-thiazol-4(5H)-one], the “pKi hV1a” value is reported as 8.0. COC/C(=C1/SC(N2CCC3(CC2)OCc2ccccc23)=NC1=O)c1ccccc1 [Example 92, (5E)-5-(2-methoxy-1-phenylethylidene)-2-(1′H,3H-spiro[2-benzofuran-1,4′-piperidin]-1′-yl)-1,3-thiazol-4(5H)-one] was tested, and the “pKi hV1a” value was 9.0. With O=C1N=C(N2CCC3(CC2)OCc2ccccc23)S/C1=C1/COCc2ccccc21 [Example 87, (5E/Z)-5-(1H-isochromen-4(3H)-ylidene)-2-(1′H,3H-spiro[2-benzofuran-1,4′-piperidin]-1′-yl)-1,3-thiazol-4(5H)-one] the “pKi hV1a” value was 8.9. In the case of C/C(=C1/SC(N2CCC3(CC2)OCc2ccncc23)=NC1=O)c1ccc(Cl)cc1 [Example 4, (5E/Z)-5-[1-(4-chlorophenyl)ethylidene]-2-(1H,1′H-spiro[furo[3,4-c]pyridine-3,4′-piperidin]-1′-yl)-1,3-thiazol-4(5H)-one and (5Z)-5-[1-(4-chlorophenyl)ethylidene]-2-(1H,1′H-spiro[furo[3,4-c]pyridine-3,4′-piperidin]-1′-yl)-1,3-thiazol-4(5H)-one], the “pKi hV1a” value is reported as 9.0. C/C(=C1/SC(N2CCC3(CC2)OCc2ccccc23)=NC1=O)C(F)(F)F [Example 71, (5Z)-2-(1′H,3H-spiro[2-benzofuran-1,4′-piperidin]-1′-yl)-5-(1,1,1-trifluoropropan-2-ylidene)-1,3-thiazol-4(5H)-one] was tested, and the “pKi hV1a” value was 8.3. In the case of CCCC(CCC)=C1SC(N2CCC3(CC2)OCc2ccccc23)=NC1=O [Example 114, 5-(heptan-4-ylidene)-2-(1′H,3H-spiro[2-benzofuran-1,4′-piperidin]-1′-yl)-1,3-thiazol-4(5H)-one], the “pKi hV1a” value is reported as 8.9. For Cc1cc(/C=C2\SC(N3CCC4(CC3)OCc3ccccc34)=NC2=O)no1 [Example 93, 5-[(5-methyl-1,2-oxazol-3-yl)methylidene]-2-(1′H,3H-spiro[2-benzofuran-1,4′-piperidin]-1′-yl)-1,3-thiazol-4(5H)-one], the “pKi hV1a” value was 8.1. O=C1N=C(N2CCC3(CC2)OCc2ccccc23)SC1=C1CCCCC1 [Example 52, 5-cyclohexylidene-2-(1′H,3H-spiro[2-benzofuran-1,4′-piperidin]-1′-yl)-1,3-thiazol-4(5H)-one] was tested, and the “pKi hV1a” value was 8.5. For CC(C)(C)OC(=O)N1CCC/C(=C2/SC(N3CCC4(CC3)OCc3ccccc34)=NC2=O)CC1 [Example 80, tert-butyl (4E/Z)-4-[4-oxo-2-(1′H,3H-spiro[2-benzofuran-1,4′-piperidin]-1′-yl)-1,3-thiazol-5(4H)-ylidene]azepane-1-carboxylate], the “pKi hV1a” value was 7.1. COCC(COC)=C1SC(N2CCC3(CC2)OCc2ccccc23)=NC1=O [Example 15, 5-(1,3-dimethoxypropan-2-ylidene)-2-(1′H,3H-spiro[2-benzofuran-1,4′-piperidin]-1′-yl)-1,3-thiazol-4(5H)-one] was tested, and the “pKi hV1a” value was 8.8. For O=C1N=C(N2CCC3(CC2)OCc2ccccc23)SC1=C1c2ccccc2CCc2ccccc21 [Example 98, 5-(10,11-dihydro-5H-dibenzo[a,d][7]annulen-5-ylidene)-2-(1′H,3H-spiro[2-benzofuran-1,4′-piperidin]-1′-yl)-1,3-thiazol-4(5H)-one], the “pKi hV1a” value was 8.6. For O=C1N=C(N2CCC3(CC2)OC(=O)c2ccccc23)S/C1=C(/CO)c1ccc(Cl)nc1 [Example 145, 1′-{(5E)-5-[1-(6-chloropyridin-3-yl)-2-hydroxyethylidene]-4-oxo-4,5-dihydro-1,3-thiazol-2-yl}-3H-spiro[2-benzofuran-1,4′-piperidin]-3-one], the “pKi hV1a” value was 8.0. In the case of O=C1N=C(N2CCC3(CC2)OCc2ccccc23)SC1=C1Cc2ccccc2C1 [Example 161, 5-(1,3-dihydro-2H-inden-2-ylidene)-2-(1′H,3H-spiro[2-benzofuran-1,4′-piperidin]-1′-yl)-1,3-thiazol-4(5H)-one], the “pKi hV1a” value is reported as 7.8. For C/C(=C1/SC(N2CCC3(CC2)OCc2ncccc23)=NC1=O)c1oc(C)nc1C [Example 167, (5E/Z)-5-[1-(2,4-dimethyl-1,3-oxazol-5-yl)ethylidene]-2-(1′H,7H-spiro[furo[3,4-b]pyridine-5,4′-piperidin]-1′-yl)-1,3-thiazol-4(5H)-one], the “pKi hV1a” value was 6.5. In the case of O=C1N=C(N2CCC3(CC2)OCc2ccccc23)SC1=C(c1ccc(Cl)cc1)c1ccc(Cl)cc1 [Example 100, 5-[bis(4-chlorophenyl)methylidene]-2-(1′H,3H-spiro[2-benzofuran-1,4′-piperidin]-1′-yl)-1,3-thiazol-4(5H)-one], the “pKi hV1a” value is reported as 7.1. In the case of C/C(=C1/SC(N2CCC3(CC2)OCc2ccccc23)=NC1=O)c1cc2ncccc2o1 [Example 108, (5E/Z)-5-[1-(furo[3,2-b]pyridin-2-yl)ethylidene]-2-(1′H,3H-spiro[2-benzofuran-1,4′-piperidin]-1′-yl)-1,3-thiazol-4(5H)-one], the “pKi hV1a” value is reported as 7.0. With O=C1N=C(N2CCC3(CC2)OCc2ccccc23)S/C1=C1/CCc2ccccc21 [Example 46, (5Z)-5-(2,3-dihydro-1H-inden-1-ylidene)-2-(1′H,3H-spiro[2-benzofuran-1,4′-piperidin]-1′-yl)-1,3-thiazol-4(5H)-one] the “pKi hV1a” value was 8.3. C/C(=C1/SC(N2CCC3(CC2)OCc2ccccc23)=NC1=O)c1cccnc1 [Example 39, (5Z)-5-[1-(pyridin-3-yl)ethylidene]-2-(1′H,3H-spiro[2-benzofuran-1,4′-piperidin]-1′-yl)-1,3-thiazol-4(5H)-one] was tested, and the “pKi hV1a” value was 8.9. For C/C(CO[Si](C)(C)C(C)(C)C)=C1/SC(N2CCC3(CC2)OCc2ccccc23)=NC1=O [Example 59, (5Z)-5-(1-{[tert-butyl(dimethyl)silyl]oxy}propan-2-ylidene)-2-(1′H,3H-spiro[2-benzofuran-1,4′-piperidin]-1′-yl)-1,3-thiazol-4(5H)-one], the “pKi hV1a” value was 6.5. With C/C(=C1/SC(N2CCC3(CC2)OCc2ccccc23)=NC1=O)C1CCCC1 [Example 43, (5E/Z)-5-(1-cyclopentylethylidene)-2-(1′H,3H-spiro[2-benzofuran-1,4′-piperidin]-1′-yl)-1,3-thiazol-4(5H)-one] the “pKi hV1a” value was 8.8.
